Results: patent publication US10960007B2, “Pharmacologically active aryl-substituted pyrazolo[1,5-a]pyrimidine derivatives” (RICHTER GEDEON NYRT., priority 2017, dated 2021)

What was measured:
GABAB receptor = molecular target: T1, GABAB receptor (Rattus norvegicus, UniProt O88871+Q9Z0U4); test: In vitro [35S]GTPγS binding assay in rat cortical membranes; format: biochemical; settings: [35S]GTPγS binding, rat cortical membranes; read-out: In vitro PAM potency (PAM EC50)
T1 construct: from tissue; host or cells: rat brain cortex membranes
Procedure: In Vitro [^35S]GTPγS Binding Assay in Rat Cortical Membranes
Cortices of freshly harvested rat brains were dissected on an ice-cold surface and homogenized by a glass Dounce homogeniser immediately in ice-cold buffer containing 50 mM Tris, 5 mM MgCl2 and 1 mM EDTA (pH=7.6). Tissue homogenates were centrifuged at 40000 g for 15 min at 4° C. Membrane pellets were resuspended in the same buffer and membranes were incubated for 10 min at 30° C. in a shaking water bath to eliminate endogenous GABA. Homogenates were centrifuged again under the same conditions. The final pellets were resuspended in ice-cold buffer (pH=7.6) containing 50 mM Tris, 100 mM NaCl, 7 mM MgCl2, 1 mM EDTA and 1 mM dithiotreithol (DTT) to yield a concentration of 20 mg tissue weight/ml and frozen at −70° C. until use. The assay was done in a buffer containing 50 mM Tris (pH=7.4), 100 mM NaCl, 7 mM MgCl2, 1 mM EDTA and 1 mM DTT. Each assay tube contained 150 μL GDP (in a final concentration of 50 μM), 100 μL ligand and 125 μL of the membrane suspension (250 μg tissue/tube). The assay tubes were preincubated for 10 min at 30° C. to assure equilibrium. Nonspecific binding was determined in the presence of 10 μM GTPγS; basal binding was determined in the presence of buffer only. After addition of […] [^35S]GTPγS in a volume of 25 μL to the tubes, membranes were incubated for an additional 60 min at 30° C. The assay was terminated by rapid filtration through Packard UniFilter GF/B using a Packard harvester and washed four times with 1 ml ice-cold buffer. After drying the filters at 40° C. for 1 h, 40 μL Microscint (Packard) was added to the filters and radioactivity of the filters was determined by a TopCount NXT (PerkinElmer, Waltham, Mass.; Alper and Nelson, Eur. J. Pharmacol. 1998, 343, 303-312; Rinken et al, Biochem. Pharmacol. 1999, 57, 155-162). Data thus gathered were used to determine PAM EC50 values for each compound as primary in vitro activity end point.

adult rats = test: Foot shock-induced ultrasonic vocalization (USV) in adult rats; format: in vivo, rat; settings: male Wistar rats; for inhibition in vivo at 10 mg/kg: Rattus norvegicus, po, 10 mg/kg per os, 1 h before shocking
Procedure: Foot Shock-Induced Ultrasonic Vocalization (USV) in Adult Rats
(§1) Under stressful conditions, adult rats emit 22 kHz ultrasounds that can be reduced by various pharmacological treatments (De Vry et al, Eur. J. Pharmacol. 1993, 249, 331-339; Sanchez, Eur. J. Pharmacol. 2003, 463, 133-143). […] Therefore, a foot shock-induced vocalization paradigm in adult rats was used to assess in vivo efficacy of centrally acting GABAB receptor ligands. Behavioral measurements were carried out on male Wistar rats (200-250 g, Toxicoop, Hungary). Rats were housed in groups of four in plastic cages with a wire grid top in a temperature and light-controlled laboratory animal care unit (22±2° C., 12-h light/dark cycle, lights on at 6:00 AM) with ad libitum access to commercial pellet rat food and tap water. Investigations were approved by the Local Ethical Committee of Gedeon Richter Plc. and were carried out in strict compliance with the European Directive 2010/63/EU regarding the care and use of laboratory animals for experimental procedures and all efforts were made to minimize the number of animals as well as their suffering. In order to evoke emission of ultrasounds, animals were footshocked after a habituation period of 30 s (6 shocks, 1 s, 0.8 mA each, inter-shock interval 10 s) in a sound attenuated shocking chamber (Experimetria, 40×40×80 cm). […] Vocalizations were measured right after the last footshock for 10 min with a Metris Sonotrack system and the total time of vocalizations was registered. Vocalization of parallel vehicle treated animals was considered as control value and inhibition percent was calculated for each compound. At approximately 75 min after treatment and behavioral measurements, blood and brain samples were harvested in order to determine exposures associated with in vivo activity.

[1] = Plasma and brain exposure after USV measurement; format: in vivo; settings: rat, per os, about 75 min after treatment
Procedure: as §1

T1 sequence (O88871 41-940): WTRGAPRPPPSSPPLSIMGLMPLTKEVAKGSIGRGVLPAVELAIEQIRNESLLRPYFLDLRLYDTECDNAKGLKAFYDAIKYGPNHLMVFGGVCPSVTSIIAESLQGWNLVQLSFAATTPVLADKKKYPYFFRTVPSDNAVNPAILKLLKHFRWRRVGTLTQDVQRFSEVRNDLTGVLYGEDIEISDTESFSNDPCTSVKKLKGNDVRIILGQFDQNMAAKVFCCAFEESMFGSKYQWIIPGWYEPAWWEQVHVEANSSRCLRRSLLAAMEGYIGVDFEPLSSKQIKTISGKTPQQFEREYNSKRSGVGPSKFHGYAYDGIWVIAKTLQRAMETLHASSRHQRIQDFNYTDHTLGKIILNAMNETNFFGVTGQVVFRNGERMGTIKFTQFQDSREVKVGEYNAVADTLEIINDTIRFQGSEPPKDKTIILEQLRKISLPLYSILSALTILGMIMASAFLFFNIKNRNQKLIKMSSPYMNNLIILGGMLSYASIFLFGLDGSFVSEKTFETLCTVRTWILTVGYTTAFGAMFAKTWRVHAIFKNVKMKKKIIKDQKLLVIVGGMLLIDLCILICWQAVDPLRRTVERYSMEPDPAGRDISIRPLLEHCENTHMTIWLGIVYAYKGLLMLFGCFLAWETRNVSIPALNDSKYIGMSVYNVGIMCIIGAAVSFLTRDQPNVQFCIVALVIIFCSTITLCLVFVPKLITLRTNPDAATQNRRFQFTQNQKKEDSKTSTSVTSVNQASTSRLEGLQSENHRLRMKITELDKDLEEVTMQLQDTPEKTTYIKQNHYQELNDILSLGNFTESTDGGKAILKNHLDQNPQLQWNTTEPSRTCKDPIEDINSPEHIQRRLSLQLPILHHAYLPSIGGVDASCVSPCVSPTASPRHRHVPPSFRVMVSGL
T1 sequence (Q9Z0U4 17-960 limits assumed): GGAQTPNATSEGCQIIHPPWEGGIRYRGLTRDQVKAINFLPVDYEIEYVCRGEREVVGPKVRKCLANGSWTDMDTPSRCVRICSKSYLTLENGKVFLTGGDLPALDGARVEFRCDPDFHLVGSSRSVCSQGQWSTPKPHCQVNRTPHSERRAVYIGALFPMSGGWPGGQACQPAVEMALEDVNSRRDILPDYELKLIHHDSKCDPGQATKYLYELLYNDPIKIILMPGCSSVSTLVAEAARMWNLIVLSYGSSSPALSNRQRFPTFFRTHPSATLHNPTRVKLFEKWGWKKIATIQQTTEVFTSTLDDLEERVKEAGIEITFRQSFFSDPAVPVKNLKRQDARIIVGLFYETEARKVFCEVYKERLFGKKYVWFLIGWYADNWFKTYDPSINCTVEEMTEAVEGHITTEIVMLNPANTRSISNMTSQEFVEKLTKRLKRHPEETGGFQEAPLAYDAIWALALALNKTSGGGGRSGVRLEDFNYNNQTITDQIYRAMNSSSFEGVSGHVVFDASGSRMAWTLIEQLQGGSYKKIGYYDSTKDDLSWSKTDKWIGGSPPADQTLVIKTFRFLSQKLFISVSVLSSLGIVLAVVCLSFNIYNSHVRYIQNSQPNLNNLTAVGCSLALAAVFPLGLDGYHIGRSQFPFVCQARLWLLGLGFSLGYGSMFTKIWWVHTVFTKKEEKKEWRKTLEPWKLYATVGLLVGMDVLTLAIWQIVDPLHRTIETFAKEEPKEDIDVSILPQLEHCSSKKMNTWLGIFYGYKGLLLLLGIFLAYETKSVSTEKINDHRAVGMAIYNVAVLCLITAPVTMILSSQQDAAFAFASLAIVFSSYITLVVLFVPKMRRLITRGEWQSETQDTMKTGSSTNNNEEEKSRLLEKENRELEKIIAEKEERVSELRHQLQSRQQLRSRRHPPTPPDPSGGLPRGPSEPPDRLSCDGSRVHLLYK

Row | SMILES | EC50 (GABAB receptor) | inhibition in vivo at 10 mg/kg (adult rats) | Brain exposure at 1 mg/kg ([1]; formulation SpD1) | Plasma exposure at 1 mg/kg ([1]; formulation SpD1) | Brain exposure at 1 mg/kg ([1]; formulation Tween) | Plasma exposure at 1 mg/kg ([1]; formulation Tween) | USV inhibition (%) (adult rats; at 3 mg/kg, per os)
1 | Cc1nc2cc(-c3ccc(Cl)cc3)nn2c(N2CCC[C@](C(=O)O)(C(C)C)C2)c1C(C)C [Example 9, (3S)-1-[2-(4-Chlorophenyl)-5-methyl-6-(propan-2-yl)pyrazolo[1,5-a]pyrimidin-7-yl]-3-(propan-2-yl)piperidine-3-carboxylic acid] | 10 to 100 nM | 39% | 1849 ng/g | 1807 ng/mL | – | – | –
2 | CC[C@]1(C(=O)O)CCCN(c2c(C(C)C)c(C)nc3cc(-c4ccc(C(F)(F)F)c(F)c4)nn23)C1 [Example 14, (3S)-3-Ethyl-1-{2-[3-fluoro-4-(trifluoromethyl)phenyl]-5-methyl-6-(propan-2-yl)pyrazolo[1,5-ala]pyrimidin-7-yl}piperidine-3-carboxylic acid] | 10 to 100 nM | 47% | 1962 ng/g | 2323 ng/mL | – | – | –
3 | CC[C@]1(C(=O)O)CCCN(c2c(C(C)C)c(C)nc3cc(-c4ccc(C(F)(F)F)cc4)nn23)C1 [Example 6, (3S)-3-Ethyl-1-[5-methyl-6-(propan-2-yl)-2-[4-(trifluoromethyl)phenyl]pyrazolo[1,5-a]pyrimidin-7-yl]piperidine-3-carboxylic acid] | 10 to 100 nM | 90% | – | – | 1326 ng/g | 1453 ng/mL | –
4 | Cc1nc2cc(-c3ccc(Cl)cc3)nn2c(N2CCCC(C(=O)O)(C(C)C)C2)c1C(C)C (stereo not shown) [Example 3, 1-[2-(4-Chlorophenyl)-5-methyl-6-(propan-2-yl)pyrazolo[1,5-a]pyrimidin-7-yl]-3-(propan-2-yl)piperidine-3-carboxylic acid] | 10 to 100 nM | 58% | – | – | 395 ng/g | 358 ng/mL | –
5 | CC[C@@]1(C(=O)O)CCCN(c2c(C(C)C)c(C)nc3cc(-c4ccc(Cl)cc4)nn23)C1 [Example 21] | 10 to 100 nM | – | – | – | – | – | –
6 | CC[C@]1(C(=O)O)CCCN(c2c(C(C)C)c(C)nc3c(F)c(-c4ccc(C(F)(F)F)cc4)nn23)C1 [Example 15, (3S)-3-Ethyl-1-[3-fluoro-5-methyl-6-(propan-2-yl)-2-[4-(trifluoromethyl)phenyl]pyrazolo[1,5-a]pyrimidin-7-yl]piperidine-3-carboxylic acid] | 1 to 10 nM | 85% | 1377 ng/g | 1317 ng/mL | – | – | –
7 | COCC1(C(=O)O)CCCN(c2c(C(C)C)c(C)nc3cc(-c4ccc(C(F)(F)F)cc4)nn23)C1 (stereo not shown) [Example 16] | 10 to 100 nM | 41% | – | – | 28 ng/g | 103 ng/mL | –
8 | Cc1nc2cc(-c3ccc(Cl)cc3)nn2c(N2CCC[C@@](C(=O)O)(C(C)C)C2)c1C(C)C [Example 22] | 10 to 100 nM | – | – | – | – | – | –
9 | Cc1nc2cc(-c3ccc(C(F)(F)F)cc3)nn2c(N2CCC[C@](C)(C(=O)O)C2)c1C(C)C [Example 12, (3S)-3-Methyl-1-[5-methyl-6-(propan-2-yl)-2-[4-(trifluoromethyl)phenyl]pyrazolo[1,5-a]pyrimidin-7-yl]piperidine-3-carboxylic acid] | 1 to 10 nM | 63% | – | – | 218 ng/g | 283 ng/mL | –
10 | Cc1nc2c(F)c(-c3ccc(Cl)cc3)nn2c(N2CCCC(C(=O)O)C2)c1C(C)C (stereo not shown) [Example 70] | – | 71% | – | – | – | – | –
11 | Cc1nc2cc(-c3ccc(C(F)(F)F)cc3)nn2c(N2CCC[C@](C(=O)O)(C(C)C)C2)c1C(C)C [Example 10, (3S)-1-[5-Methyl-6-(propan-2-yl)-2-[4-(trifluoromethyl)phenyl]pyrazolo[1,5-a]pyrimidin-7-yl]-3-(propan-2-yl)piperidine-3-carboxylic acid] | 1 to 10 nM | 30% | – | – | 150 ng/g | 36 ng/mL | –
12 | Cc1nc2c(F)c(-c3ccc(C(F)(F)F)cc3)nn2c(N2CCC[C@](C)(C(=O)O)C2)c1C(C)C [Example 84] | 1 to 10 nM | – | – | – | 85 ng/g | 113 ng/mL | 42 (at 3 mg/kg) %
13 | CC[C@]1(C(=O)O)CCCN(c2c(C(C)C)c(C)nc3cc(-c4ccc(Cl)cc4)nn23)C1 [Example 5, (3S)-1-[2-(4-Chlorophenyl)-5-methyl-6-(propan-2-yl)pyrazolo[1,5-a]pyrimidin-7-yl]-3-ethylpiperidine-3-carboxylic acid] | 10 to 100 nM | 37% | 857 ng/g | 1472 ng/mL | – | – | –
14 | Cc1nc2cc(-c3ccc(C(F)(F)F)cc3Cl)nn2c(N2CCC[C@](C)(C(=O)O)C2)c1C(C)C [Example 13, (3S)-1-{2-[2-Chloro-4-(trifluoromethyl)phenyl]-5-methyl-6-(propan-2-yl)pyrazolo[1,5-a]pyrimidin-7-yl}-3-methylpiperidine-3-carboxylic acid] | 1 to 10 nM | 90% | – | – | 424 ng/g | 843 ng/mL | –
15 | CCC1(C(=O)O)CCCN(c2c(C(C)C)c(C)nc3cc(-c4ccc(Cl)cc4)nn23)C1 (stereo not shown) [Example 20] | 10 to 100 nM | – | 1093 ng/g | 1275 ng/mL | – | – | –
16 | Cc1nc2cc(-c3ccc(C(F)(F)F)c(F)c3)nn2c(N2CCC[C@@](C(=O)O)(C(C)C)C2)c1C(C)C [Example 58] | 10 to 100 nM | – | – | – | – | – | –
17 | CC[C@@]1(C(=O)O)CCCN(c2c(C(C)C)c(C)nc3cc(-c4ccc(C(F)(F)F)cc4F)nn23)C1 [Example 8, (3R)-3-Ethyl-1-{2-[2-fluoro-4-(trifluoromethyl)phenyl]-5-methyl-6-(propan-2-yl)pyrazolo[1,5-a]pyrimidin-7-yl}piperidine-3-carboxylic acid] | – | 60% | – | – | 1193 ng/g | 298 ng/mL | –
18 | CC[C@]1(C(=O)O)CCCN(c2c(C(C)C)c(C)nc3cc(-c4ccc(C(F)(F)F)cc4F)nn23)C1 [Example 7, (3S)-3-Ethyl-1-{2-[2-fluoro-4-(trifluoromethyl)phenyl]-5-methyl-6-(propan-2-yl)pyrazolo[1,5-a]pyrimidin-7-yl}piperidine-3-carboxylic acid] | 1 to 10 nM | 90% | – | – | 332 ng/g | 506 ng/mL | –
19 | Cc1nc2cc(-c3ccc(C(F)(F)F)cc3F)nn2c(N2CCC[C@@](C(=O)O)(C(C)C)C2)c1C(C)C [Example 11, (3R)-1-{2-[2-Fluoro-4-(trifluoromethyl)phenyl]-5-methyl-6-(propan-2-yl)pyrazolo[1,5-a]pyrimidin-7-yl}-3-(propan-2-yl)piperidine-3-carboxylic acid] | 1 to 10 nM | 15% | – | – | 165 ng/g | 326 ng/mL | –
20 | Cc1nc2cc(-c3ccc(C(F)(F)F)cc3)nn2c(N2CCC[C@@](C(=O)O)(C(C)C)C2)c1C(C)C [Example 28] | 10 to 100 nM | 35% | – | – | 184 ng/g | 222 ng/mL | –
21 | Cc1nc2cc(-c3ccc(Cl)cc3Cl)nn2c(N2CCC[C@](C(=O)O)(C(C)C)C2)c1C(C)C [Example 45] | 10 to 100 nM | – | – | – | – | – | –
